Laboratory results: the supplement of paper PMC11451515

Tested on: SEM cells
Experiment: cell viability relative to DMSO control; higher = less cytotoxic
Settings: 48 h
Method in brief: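 Viability values are per-plate percentages of DMSO wells, with background from cell-free wells. Library compounds in DMSO were pin-dosed, in an 11-point threefold series from 47 μM to 0.79 nM, onto NOMO1 or SEM (500 cells/well) or P12-Ichikawa (1000 cells/well) leukemia cells in 1536-well plates (5 μl). Those cells had been adapted for at least four passages in each medium, and CellTiter-Glo One luminescence was read after 48 h at 37°C.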

[1] = RPMI 5 mM glucose + 10% FBS, 0.000781 µM
[2] = RPMI 5 mM glucose + 10% FBS, 0.00234 µM
[3] = RPMI 5 mM glucose + 10% FBS, 0.00702 µM
[4] = RPMI 5 mM glucose + 10% FBS, 0.0211 µM
[5] = RPMI 5 mM glucose + 10% FBS, 0.0632 µM
[6] = RPMI 5 mM glucose + 10% FBS, 0.19 µM
[7] = RPMI 5 mM glucose + 10% FBS, 0.569 µM
[8] = RPMI 5 mM glucose + 10% FBS, 1.71 µM
[9] = RPMI 5 mM glucose + 10% FBS, 5.12 µM
[10] = RPMI 5 mM glucose + 10% FBS, 15.4 µM
[11] = RPMI 5 mM glucose + 10% FBS, 46.1 µM
[12] = RPMI 5 mM glucose + 10% dialyzed FBS, 0.000781 µM
[13] = RPMI 5 mM glucose + 10% dialyzed FBS, 0.00234 µM
[14] = RPMI 5 mM glucose + 10% dialyzed FBS, 0.00702 µM
[15] = RPMI 5 mM glucose + 10% dialyzed FBS, 0.0211 µM
[16] = RPMI 5 mM glucose + 10% dialyzed FBS, 0.0632 µM
[17] = RPMI 5 mM glucose + 10% dialyzed FBS, 0.19 µM
[18] = RPMI 5 mM glucose + 10% dialyzed FBS, 0.569 µM
[19] = RPMI 5 mM glucose + 10% dialyzed FBS, 1.71 µM
[20] = RPMI 5 mM glucose + 10% dialyzed FBS, 5.12 µM
[21] = RPMI 5 mM glucose + 10% dialyzed FBS, 15.4 µM
[22] = RPMI 5 mM glucose + 10% dialyzed FBS, 46.1 µM
[23] = HPLM + 10% dialyzed FBS, 0.000781 µM
[24] = HPLM + 10% dialyzed FBS, 0.00234 µM
[25] = HPLM + 10% dialyzed FBS, 0.00702 µM
[26] = HPLM + 10% dialyzed FBS, 0.0211 µM
[27] = HPLM + 10% dialyzed FBS, 0.0632 µM
[28] = HPLM + 10% dialyzed FBS, 0.19 µM
[29] = HPLM + 10% dialyzed FBS, 0.569 µM
[30] = HPLM + 10% dialyzed FBS, 1.71 µM
[31] = HPLM + 10% dialyzed FBS, 5.12 µM
[32] = HPLM + 10% dialyzed FBS, 15.4 µM
[33] = HPLM + 10% dialyzed FBS, 46.1 µM

SMILES	cell viability [1]	cell viability [2]	cell viability [3]	cell viability [4]	cell viability [5]	cell viability [6]	cell viability [7]	cell viability [8]	cell viability [9]	cell viability [10]	cell viability [11]	cell viability [12]	cell viability [13]	cell viability [14]	cell viability [15]	cell viability [16]	cell viability [17]	cell viability [18]	cell viability [19]	cell viability [20]	cell viability [21]	cell viability [22]	cell viability [23]	cell viability [24]	cell viability [25]	cell viability [26]	cell viability [27]	cell viability [28]	cell viability [29]	cell viability [30]	cell viability [31]	cell viability [32]	cell viability [33]
Nc1nccc(-c2ccc3noc(-c4ccc(Cl)cc4)c3c2)n1	98.5%	103%	99.3%	102%	93.9%	116%	112%	104%	89.1%	88.9%	92.7%	118%	119%	119%	119%	104%	115%	126%	119%	108%	114%	108%	–	–	–	–	–	–	–	–	–	–	–
CC(C)(Sc1cc(C(C)(C)C)c(O)c(C(C)(C)C)c1)Sc1cc(C(C)(C)C)c(O)c(C(C)(C)C)c1	90%	94.6%	67%	96.1%	80.7%	103%	91.3%	84.1%	49.1%	95.4%	105%	79%	81.5%	76.7%	97.7%	86.1%	94.5%	90.2%	89.3%	54.4%	89.1%	104%	73.2%	89.8%	60%	90.9%	91.2%	91.9%	84.2%	81.4%	46.4%	89.1%	90%
O=C(CCCN1CCC(O)(c2ccc(Cl)cc2)CC1)c1ccc(F)cc1	100%	109%	82.6%	101%	113%	117%	20.9%	47.2%	117%	110%	89.6%	101%	106%	95.5%	110%	123%	120%	30.6%	43%	122%	122%	101%	86.5%	93.9%	75.6%	106%	113%	94.8%	25.8%	43.8%	90.2%	102%	98.3%
COc1ccc(-n2c(C)c([N+](=O)[O-])c3ccc(O)cc32)cc1	102%	103%	111%	107%	120%	109%	108%	122%	127%	121%	98.5%	–	–	–	–	–	–	–	–	–	–	–	–	–	–	–	–	–	–	–	–	–	–
COc1cc(N2CCN(C)CC2)ccc1Nc1nc(N)c(C(=O)c2c(Cl)cccc2Cl)s1	118%	121%	117%	108%	101%	109%	105%	110%	85.7%	68.4%	3.88%	112%	105%	122%	116%	116%	114%	110%	106%	122%	85.7%	13.3%	109%	118%	124%	111%	108%	116%	111%	93.7%	88.9%	78.4%	24.5%
C/C=C(\C)C(=O)N[C@@H](c1ccccc1)[C@@H](O)C(=O)O[C@H]1C[C@@]2(O)[C@@H](OC(=O)c3ccccc3)[C@@H]3[C@]4(OC(C)=O)CO[C@@H]4C[C@H](O)[C@@]3(C)C(=O)[C@H](OC(C)=O)C(=C1C)C2(C)C	45.4%	22.3%	23.3%	18.4%	14.1%	15.5%	15.4%	14.9%	14.3%	12.5%	12.2%	32.4%	26.1%	25%	17.5%	16.2%	13.6%	13.1%	14.7%	16.6%	15.5%	16.2%	34%	24.3%	33.2%	20.6%	19.2%	19.8%	14.9%	19.6%	19.9%	15.9%	20.5%
COc1cccc(N(C)C(=S)Oc2ccc3c(c2)CCCC3)n1	75%	83%	86.7%	94%	104%	96.2%	93.1%	97%	99.3%	97.9%	92.8%	96.7%	95.1%	90.2%	93.3%	91.3%	100%	101%	97.5%	87.8%	98.5%	84.6%	75.6%	66.4%	85.4%	88.1%	91.2%	84%	95.4%	82.5%	76.5%	82.8%	65.6%
O=C(NOCC1CC1)c1ccc(F)c(F)c1Nc1ccc(I)cc1Cl	95.8%	93.7%	112%	108%	94.7%	93.8%	106%	94.2%	85.5%	67.3%	53.1%	101%	89.9%	115%	104%	102%	78.2%	103%	89.6%	84.8%	59.7%	59.7%	91%	87.8%	109%	113%	99.7%	99.5%	113%	116%	95.8%	75.5%	77.1%
